Data: patent US8278473B2, “Alpha, beta-unsaturated imidate compound and pesticidal composition containing the same” (Sumitomo Chemical Company, Limited, priority 2007, dated 2012)

Tested on: Haemaphysalis longicornis
Assay: Test Example 10: Haemaphysalis longicornis, treated filter paper pouch
Type: in vivo
Conditions: 0.5 mg compound on filter paper 5×10 cm; non-blood sucking nymphal ticks; after 2 days
Procedure: In 1 mL of acetone, 0.5 mg of any one of the present compounds 1 to 48 was dissolved, and the solution was spread uniformly on one side of a filter paper (TOYO No. 2; 5×10 cm). After dried, the filter paper was folded into two, and the sides were clipped to make a pouch. Into the pouch, tested ticks (Haemaphysalis longicornis, non-blood sucking nymphal ticks, 10 ticks in a group) were placed. The pouch was clipped and sealed. After 2 days, the number of dead ticks was counted.

Compound	death rate [%]
COc1ccc(N=C(Oc2cccc(C)c2)C(C)=COc2ccccc2OC)cc1 [Compound 246, 3-methylphenyl N-(4-methoxyphenyl)-3-(2-methoxyphenyloxy)-2-methyl-2-propenimidate]	100
CCc1cccc(OC(=Nc2ccc(OC)cc2)C(C)=COc2ccccc2OC)c1 [Compound 247, 3-ethylphenyl N-(4-methoxyphenyl)-3-(2-methoxyphenyloxy)-2-methyl-2-propenimidate]	100
COc1ccccc1OC=C(C)C(=Nc1ccc(C)c(C)c1)Oc1cccc(C)c1 [Compound 252, 3-methylphenyl N-(3,4-dimethylphenyl)-3-(2-methoxyphenyloxy)-2-methyl-2-propenimidate]	100
COc1cccc(OC=C(C)C(=Nc2ccccc2)Oc2ccccc2)c1 [Compound 257, phenyl 3-(3-methoxyphenyloxy)-2-methyl-N-phenyl-2-propenimidate]	100
COc1cccc(OC=C(C)C(=Nc2ccc(C)cc2)Oc2cccc(C)c2)c1 [Compound 261, 3-methylphenyl 3-(3-methoxyphenyloxy)-2-methyl-N-(4-methylphenyl)-2-propenimidate]	100
COc1ccc(OC=C(C)C(=Nc2ccccc2)Oc2ccccc2)cc1 [Compound 262, phenyl 3-(4-methoxyphenyloxy)-2-methyl-N-phenyl-2-propenimidate]	100
COc1ccc(OC=C(C)C(=Nc2ccccc2)Oc2cccc(OC)c2)cc1 [Compound 266, 3-methoxyphenyl 3-(4-methoxyphenyloxy)-2-methyl-N-phenyl-2-propenimidate]	100
COc1ccc(OC=C(C)C(=Nc2ccc(C)cc2)Oc2cccc(C)c2)cc1 [Compound 270, 3-methylphenyl 3-(4-methoxyphenyloxy)-2-methyl-N-(4-methylphenyl)-2-propenimidate]	100
COc1ccc(OC=C(C)C(=Nc2ccc(C)cc2)Oc2ccc(C)cc2)cc1 [Compound 271, 4-methylphenyl 3-(4-methoxyphenyloxy)-2-methyl-N-(4-methylphenyl)-2-propenimidate]	100
CCc1cccc(OC(=Nc2ccc(C)cc2)C(C)=COc2ccc(OC)cc2)c1 [Compound 272, 3-ethylphenyl 3-(4-methoxyphenyloxy)-2-methyl-N-(4-methylphenyl)-2-propenimidate]	100
COc1ccc(OC=C(C)C(=Nc2ccc(C)cc2)Oc2cccc(OC)c2)cc1 [Compound 273, 3-methoxyphenyl 3-(4-methoxyphenyloxy)-2-methyl-N-(4-methylphenyl)-2-propenimidate]	100
COc1ccc(OC=C(C)C(=Nc2ccc(C)cc2)Oc2cc(C)cc(C)c2)cc1 [Compound 275, 3,5-dimethylphenyl 3-(4-methoxyphenyloxy)-2-methyl-N-(4-methylphenyl)-2-propenimidate]	100
COc1ccc(N=C(Oc2cccc(OC)c2)C(C)=COc2ccc(OC)cc2)cc1 [Compound 279, 3-methoxyphenyl N-(4-methoxyphenyl)-3-(4-methoxyphenyloxy)-2-methyl-2-propenimidate]	100
COc1ccc(N=C(Oc2cc(C)cc(C)c2)C(C)=COc2ccc(OC)cc2)cc1 [Compound 281, 3,5-dimethylphenyl N-(4-methoxyphenyl)-3-(4-methoxyphenyloxy)-2-methyl-2-propenimidate]	100
CCc1cccc(OC(=Nc2ccc(C)c(C)c2)C(C)=COc2ccc(OC)cc2)c1 [Compound 284, 3-ethylphenyl N-(3,4-dimethylphenyl)-3-(4-methoxyphenyloxy)-2-methyl-2-propenimidate]	100
CC(=COc1ccc(Oc2ccccc2)cc1)C(=Nc1ccccc1)Oc1ccccc1 [Compound 291, phenyl 2-methyl-3-(4-phenoxyphenyloxy)-N-phenyl-2-propenimidate]	100
CC(=COc1ccc(C)c(C)c1)C(=Nc1ccccc1)Oc1ccccc1 [Compound 292, phenyl 3-(3,4-dimethylphenyloxy)-2-methyl-N-phenyl-2-propenimidate]	100
CCC(=COc1ccccc1)C(=Nc1ccccc1)Sc1ccccc1 [Compound 300, phenyl 2-ethyl-3-phenoxy-N-phenyl-2-propenimidothioate]	100
CCC(=COc1ccccc1)C(=Nc1ccccc1)Oc1ccccc1 [Compound 301, phenyl 2-ethyl-3-phenoxy-N-phenyl-2-propenimidate]	100
CCCC(=COc1ccccc1)C(=Nc1ccccc1)Oc1ccccc1 [Compound 322, phenyl 3-phenoxy-N-phenyl-2-n-propyl-2-propenimidate]	100
